This is an account of results in patent US11236129B2, “IL-17A binding peptides and medical uses thereof” (Dompe' Farmaceutici S.P.A., priority 2018, dated 2022).

The structures appear in SMILES notation. Residues, ends and D or L forms follow the SMILES beside them. Where only a bound is given, the exact number is not on record here.

In the assay the target is IL-17RA/IL17RC dimerization induced by IL-17A (Homo sapiens, UniProt Q16552). Kind of assay: IL-17RA/IL17RC dimerization assay in response to IL-17A (PathHunter Cytokine Receptor Assay). Type of assay: cell-based. To be noted: IL-17A at EC80; read-out: IC50 in IL-17RA/IL7RC dimerization assay. Here is the method:
The peptides of Table 7 were tested for their ability to inhibit the binding of IL-17A to its receptor and the subsequent interaction of IL-17RA and IL17RC.
Interleukin receptor RA and RC dimerization assay (DiscoverX) was used to measure the interaction of the receptor chains IL-17RA and IL17RC upon activation by IL-17A in the absence or presence of the peptides of Table 7.
In the PathHunter® Cytokine Receptor Assay, one cytokine receptor chain is tagged with a small peptide epitope ProLink (PK) and the other chain is tagged with Enzyme Acceptor (EA). Ligand binding induces dimerization of the two receptors, facilitating complementation of PK and EA fragments. This interaction generates an active unit of b-galactosidase, which is detected using a chemiluminescent substrate. PathHunter cell lines were expanded from freezer stocks according to standard procedures. Cells were seeded in a total volume of 20 μL into white walled, 384-well microplates and incubated for the appropriate time prior to testing. For agonist activity inhibition, cells were incubated with sample to induce response. Intermediate dilution of sample stocks was performed to generate 5× sample in assay buffer. 5 μL of 5× sample was added to cells and incubated at 37° C. or room temperature for 60 minutes. Vehicle concentration was 1%. 5 μL of 6×EC80 agonist (IL-17A) in assay buffer was added to the cells and incubated at 37° C. for 6 to 16 hours depending on the assay. 1. […] For some assays, activity was detected using a high sensitivity detection reagent (PathHunter Flash Kit) to improve assay performance. In these assays, an equal volume of detection reagent (25 or 30 uL) was added to the wells, followed by a one hour incubation at room temperature. Microplates were read following signal generation with a PerkinElmer Envision™ instrument for chemiluminescent signal detection. Compound activity was analyzed using CBIS data analysis suite (ChemInnovation, CA). % Inhibition=100%×(1−(mean RLU of test sample−mean RLU of vehicle control)/(mean RLU of EC80 control−mean RLU of vehicle control)).

IL-17RA/IL17RC dimerization induced by IL-17A, sequence (Q16552 24-155): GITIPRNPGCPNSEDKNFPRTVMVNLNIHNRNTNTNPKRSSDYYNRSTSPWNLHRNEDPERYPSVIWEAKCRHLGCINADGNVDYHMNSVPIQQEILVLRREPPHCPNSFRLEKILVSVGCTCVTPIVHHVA

As for `CC(=O)N[C@H](C(=O)N[C@@H](Cc1c[nH]cn1)C(=O)N[C@@H](Cc1ccccc1)C(=O)N[C@H](C(=O)N[C@@H](Cc1ccccc1)C(=O)N1CCC[C@H]1C(=O)N[C@@H](CCC(N)=O)C(=O)N[C@@H](CC(=O)O)C(=O)N[C@@H](CC(C)C)C(=O)N[C@@H](Cc1c[nH]c2ccccc12)C(=O)N[C@@H](CCC(=O)O)C(=O)N[C@@H](Cc1c[nH]c2ccccc12)C(=O)N[C@@H](Cc1ccccc1)C(=O)N[C@@H](CCCNC(=N)N)C(=O)N[C@@H](CCCNC(=N)N)C(N)=O)[C@@H](C)O)C(C)C` [SEQ ID NO: 129] (Ac-VHFTFPQDLWEWFRR-NH2), the IC50 was below 500 nM.
Next, `CC(=O)N[C@H](C(=O)N[C@@H](Cc1c[nH]cn1)C(=O)N[C@@H](Cc1ccccc1)C(=O)N[C@@H](CCC(N)=O)C(=O)N[C@@H](Cc1ccccc1)C(=O)N1CCC[C@H]1C(=O)N[C@@H](C)C(=O)N[C@@H](CC(=O)O)C(=O)N[C@@H](CC(C)C)C(=O)N[C@@H](Cc1c[nH]c2ccccc12)C(=O)N[C@@H](CCC(=O)O)C(=O)N[C@@H](Cc1c[nH]c2ccccc12)C(=O)N[C@H](C(=O)N[C@@H](CCCNC(=N)N)C(=O)N[C@@H](CCCNC(=N)N)C(N)=O)C(C)C)C(C)C` [SEQ ID NO: 130] (Ac-VHFQFPADLWEWVRR-NH2): below 500 nM; `CC(=O)N[C@H](C(=O)N[C@@H](Cc1c[nH]cn1)C(=O)N[C@@H](Cc1ccccc1)C(=O)N[C@@H](CCC(N)=O)C(=O)N[C@@H](Cc1ccccc1)C(=O)N1CCC[C@H]1C(=O)N[C@@H](C)C(=O)N[C@@H](CC(=O)O)C(=O)N[C@@H](Cc1ccccc1)C(=O)N[C@@H](Cc1c[nH]c2ccccc12)C(=O)N[C@@H](CCC(=O)O)C(=O)N[C@@H](Cc1c[nH]c2ccccc12)C(=O)N[C@H](C(=O)N[C@@H](CCCNC(=N)N)C(=O)N[C@@H](CCCNC(=N)N)C(N)=O)C(C)C)C(C)C` [SEQ ID NO: 131] (Ac-VHFQFPADFWEWVRR-NH2): below 500 nM.
Next, `CC(=O)N[C@H](C(=O)N[C@@H](Cc1c[nH]cn1)C(=O)N[C@@H](Cc1ccccc1)C(=O)N[C@@H](CCC(N)=O)C(=O)N[C@@H](Cc1ccccc1)C(=O)N1CCC[C@H]1C(=O)N[C@@H](C)C(=O)N[C@@H](CC(=O)O)C(=O)N[C@@H](CC(C)C)C(=O)N[C@@H](Cc1ccc(O)cc1)C(=O)N[C@@H](CCC(=O)O)C(=O)N[C@@H](Cc1c[nH]c2ccccc12)C(=O)N[C@H](C(=O)N[C@@H](CCCNC(=N)N)C(=O)N[C@@H](CCCNC(=N)N)C(N)=O)C(C)C)C(C)C` [SEQ ID NO: 132] (Ac-VHFQFPADLYEWVRR-NH2): below 500 nM.
The same measure for `CC(=O)N[C@H](C(=O)N[C@@H](Cc1c[nH]cn1)C(=O)N[C@@H](Cc1ccccc1)C(=O)N[C@@H](CCC(N)=O)C(=O)N[C@@H](Cc1ccccc1)C(=O)N1CCC[C@H]1C(=O)N[C@@H](C)C(=O)N[C@@H](CC(=O)O)C(=O)N[C@@H](CC(C)C)C(=O)N[C@@H](Cc1c[nH]c2ccccc12)C(=O)N[C@@H](CC(N)=O)C(=O)N[C@@H](Cc1c[nH]c2ccccc12)C(=O)N[C@H](C(=O)N[C@@H](CCCNC(=N)N)C(=O)N[C@@H](CCCNC(=N)N)C(N)=O)C(C)C)C(C)C` [SEQ ID NO: 133] (Ac-VHFQFPADLWNWVRR-NH2): below 500 nM; for `CC(=O)N[C@H](C(=O)N[C@@H](Cc1c[nH]cn1)C(=O)N[C@@H](Cc1ccccc1)C(=O)N[C@@H](CCC(N)=O)C(=O)N[C@@H](Cc1ccccc1)C(=O)N1CCC[C@H]1C(=O)N[C@@H](C)C(=O)N[C@@H](CC(=O)O)C(=O)N[C@@H](CC(C)C)C(=O)N[C@@H](Cc1c[nH]c2ccccc12)C(=O)N[C@@H](CCC(=O)O)C(=O)N[C@@H](Cc1ccccc1)C(=O)N[C@H](C(=O)N[C@@H](CCCNC(=N)N)C(=O)N[C@@H](CCCNC(=N)N)C(N)=O)C(C)C)C(C)C` [SEQ ID NO: 134] (Ac-VHFQFPADLWEFVRR-NH2): below 500 nM.
